Experimental data reported in EP0449009A2, “Use of gallopamil for the preparation of medicaments for the treatment of acute renal failure” (KNOLL AG, priority 1990, dated 1991).

System: Patienten, die an akutem Nierenversagen erkrankt waren
Assay: Clinical study of gallopamil infusion in patients with acute renal failure
Format: in vivo
Description: Zum Nachweis der Wirksamkeit bei akutem Nierenversagen wurde Gallopamil 8 Patienten, die an akutem Nierenversagen erkrankt waren, über einen Zeitraum von 4 Stunden intrarenal in Dosierungen von 40 bis 160 µg/min kontinuierlich infundiert. Gleichzeitig wurde intravenös ein Diuretikum (Furosemid) in einer Konzentration von 40 µg/min über 24 Stunden verabreicht. Bei 2 weiteren Patienten wurde Gallopamil intravenös über Zeiträume von 3 und 24 Stunden in einer Menge von 40 µg/min infundiert.
In dieser Studie konnte bei 80 % der Patienten der deletäre Verlauf des akuten Nierenversagens gestoppt werden (siehe nachstehende Tabelle).

[1] = whole study: 8 patients 40 to 160 µg/min intrarenal over 4 h + Furosemid i.v., 2 patients 40 µg/min intravenous

COc1ccc(CCN(C)CCCC(C#N)(c2cc(OC)c(OC)c(OC)c2)C(C)C)cc1OC (stereo not drawn) [Gallopamil, 1-(3,4-Dimethoxyphenyl)-3-methylaza-7-cyan-7-(3,4,5-trimethoxyphenyl)-8-methylnonan]
Kreatinin-Ausscheidung nach einem Behandlungstag (patient with G-6-PD (Glukose-6-phosphatdehydrogenasemangel), treatment begun 2 weeks after onset and after two dialyses, 83 µg/min intrarenal over 4 h + Furosemid 40 µg/min i.v. over 24 h, before treatment 0,8): 1,2 ml/min | Kreatininkonzentration im Blut nach sieben Behandlungstagen (patient with G-6-PD (Glukose-6-phosphatdehydrogenasemangel), treatment begun 2 weeks after onset and after two dialyses, 83 µg/min intrarenal over 4 h + Furosemid 40 µg/min i.v. over 24 h, before treatment 14,1): 14,6 mg/dl | Kreatinin-Ausscheidung nach einem Behandlungstag (patient with Malaria, treatment begun 2 weeks after onset and after two dialyses, 50 µg/min intrarenal over 4 h + Furosemid 40 µg/min i.v. over 24 h, before treatment 2,2): 3,7 ml/min | Kreatininkonzentration im Blut nach sieben Behandlungstagen (patient with Malaria, treatment begun 2 weeks after onset and after two dialyses, 50 µg/min intrarenal over 4 h + Furosemid 40 µg/min i.v. over 24 h, before treatment 12,7): 5,5 mg/dl | Kreatinin-Ausscheidung nach einem Behandlungstag (patient with Malaria, 40 µg/min intrarenal over 4 h + Furosemid 40 µg/min i.v. over 24 h, before treatment 5,3): 14,3 ml/min | Kreatininkonzentration im Blut nach sieben Behandlungstagen (patient with Malaria, 40 µg/min intrarenal over 4 h + Furosemid 40 µg/min i.v. over 24 h, before treatment 10,4): 3,1 mg/dl | Kreatininkonzentration im Blut nach sieben Behandlungstagen (patient with Rhabdomyolysis, 40 µg/min intravenous over 3 h, before treatment 5,2): 5,9 mg/dl | Kreatinin-Ausscheidung nach einem Behandlungstag (patient with Rhabdomyolysis, 40 µg/min intravenous over 3 h, before treatment 8,9): 3,6 ml/min | Kreatinin-Ausscheidung nach einem Behandlungstag (patient with Rhabdomyolysis, 80 µg/min intrarenal over 4 h + Furosemid 40 µg/min i.v. over 24 h, before treatment 4,0): 5,1 ml/min | Kreatininkonzentration im Blut nach sieben Behandlungstagen (patient with Rhabdomyolysis, 80 µg/min intrarenal over 4 h + Furosemid 40 µg/min i.v. over 24 h, before treatment 10,1): 9,3 mg/dl | Kreatininkonzentration im Blut nach sieben Behandlungstagen (patient with Schock, 40 µg/min intravenous over 24 h, before treatment 5,5): 2,9 mg/dl | Kreatinin-Ausscheidung nach einem Behandlungstag (patient with Schock, 40 µg/min intravenous over 24 h, before treatment 10,4): 17,9 ml/min | Kreatinin-Ausscheidung nach einem Behandlungstag (patient with Schock, 83 µg/min intrarenal over 4 h + Furosemid 40 µg/min i.v. over 24 h, before treatment 3,4): 13,2 ml/min | Kreatininkonzentration im Blut nach sieben Behandlungstagen (patient with Schock, 83 µg/min intrarenal over 4 h + Furosemid 40 µg/min i.v. over 24 h, before treatment 4,7): 1,1 mg/dl | Kreatinin-Ausscheidung nach einem Behandlungstag (patient with hypovolenischer Schock, 160 µg/min intrarenal over 4 h + Furosemid 40 µg/min i.v. over 24 h, before treatment 2,3): 16,1 ml/min | Kreatininkonzentration im Blut nach sieben Behandlungstagen (patient with hypovolenischer Schock, 160 µg/min intrarenal over 4 h + Furosemid 40 µg/min i.v. over 24 h, before treatment 9,6): 2,5 mg/dl | Kreatininkonzentration im Blut nach sieben Behandlungstagen (patient with septischer Schock, 83 µg/min intrarenal over 4 h + Furosemid 40 µg/min i.v. over 24 h, before treatment 10,6): 1,3 mg/dl | Kreatinin-Ausscheidung nach einem Behandlungstag (patient with septischer Schock, 83 µg/min intrarenal over 4 h + Furosemid 40 µg/min i.v. over 24 h, before treatment 29,0): 48,0 ml/min | Patienten, bei denen auf eine Dialyse verzichtet werden konnte [1]: 90% | Patienten, bei denen der deletäre Verlauf des akuten Nierenversagens gestoppt werden konnte [1]: 80% | Überleben des akuten Nierenversagens [1]: alle Patienten überlebten
